Laboratory results published in patent publication US20220378777A1, “COMPOSITIONS AND METHODS FOR TREATING ALCOHOL USE DISORDER OR A RELATED CONDITION THEREOF” (priority 2019, published 2022).

How the values were obtained:
P rats = assay: Pretreatment with α7 NAM dehydronorketamine prior to adolescent binge-like alcohol exposure (AIE), adult EtOH consumption; assay type: in vivo, rat; details: for effect on deleterious effects of adolescent alcohol exposure (adult alcohol intake, weeks 1-2): males and females
Source text: (§1) Subjects. The alcohol-preferring (P) rats used in the current experiments were from the standard P stock maintained by the Animal Breeding Core of the Indiana University Alcohol Research Center (IUARC). Animals used in this study were maintained in facilities fully accredited by the Association for the Assessment and Accreditation of Laboratory Animal Care. All research protocols were approved by the IUSM Institutional Animal Care and Use Committee (IUSM IACUC) and were in accordance with the guidelines of the Institutional Care and Use Committee of the National Institute on Drug Abuse, the NIH, and the Guide for the Care and Use of Laboratory Animals (2011).
(§2) Statistical Analysis. All statistical analyses followed the procedures/flowchart indicated by Keppel and Zedeck (1986). Briefly, the experiments examining the acquisition of alcohol consumption utilized the dependent measure of average weekly alcohol intake. The overall analyses were mixed factor ANOVAs with between subject factors of drug dose and EtOH exposure history (when applicable) and a within subject factor of Week. The statistical analyses surveying relapse drinking examined the average EtOH intake for the three days prior to deprivation and daily EtOH intake values following re-exposure. Post-hoc comparisons for between subject factors were performed with Tukey's b analyses. The Tukey's b post-hoc comparison is a modified Tukey post-hoc comparison that reduces the prohibitive penalty for unequal sample size. There is a single assumption of ANOVAs that cannot be violated. […] Therefore, within subject variables should not be treated like between subject variables and analyzed with forced ANOVAs and inappropriate post-hoc analyses. Proper within subject post-hoc analyses are t-tests and orthogonal contrasts (Keppel and Zeddeck, 1986). Given the general lack of understanding of orthogonal contrasts, the findings from t-test analyses are being reported. Concerns of Type I error rate inflation is eliminated by the proper reading of Rodgers (1967). Type 1 error rate inflations is Ψi (i=1, . . . , J−1), and not Bonferroni, an improper estimate. Given the effect size of the current data set there is no likelihood of Type 1 error rate inflation for any reported analyses (c.f., Rodgers and Roberts, 2012; Roberts, 2011).
Effects of pretreatment with an α7 NAM dehydronorketamine prior to binge-like exposure during adolescence on adult EtOH consumption. There were 5 treatment groups. Adolescent male (n=24) and female (n=26) P rats were used in the experiment. The AIE exposure began on PND 28. Rats were given 4 g/kg alcohol (25% v/v; gavage) every Monday, Tuesday, Thursday and Friday (4 days a week; 3 days with no alcohol exposure) from post-natal day 28-48. Control (CON) groups received an equivalent volume administration of water. In the AIE groups, rats were injected (i.p.) with 0 (saline), 10 or 50 mg/kg of the α7 nicotinic receptor NAM dehydronorketamine (DHNK; Santa Cruz biotechnology) 2 hours prior to AIE exposure. CON groups received (i.p.) injections of saline or 50 mg/kg DHNK 2 hours prior to water gavage exposure. All rats were group housed between post-natal day 48 and 73 (adulthood). Pretreatment and gavage administration occurred during PND 28, 29, 30, 31, 34, 35, 37, 39, 40, 41, 44, 45, 47, and 48. Subjects were not exposed to DHNK any time after PND48.

α3β4 = α3β4 (Homo sapiens, UniProt P30926+P32297); details: read-out: binding to α3β4 IC50; cited from earlier work
Sequence of α3β4 (P32297 32-505): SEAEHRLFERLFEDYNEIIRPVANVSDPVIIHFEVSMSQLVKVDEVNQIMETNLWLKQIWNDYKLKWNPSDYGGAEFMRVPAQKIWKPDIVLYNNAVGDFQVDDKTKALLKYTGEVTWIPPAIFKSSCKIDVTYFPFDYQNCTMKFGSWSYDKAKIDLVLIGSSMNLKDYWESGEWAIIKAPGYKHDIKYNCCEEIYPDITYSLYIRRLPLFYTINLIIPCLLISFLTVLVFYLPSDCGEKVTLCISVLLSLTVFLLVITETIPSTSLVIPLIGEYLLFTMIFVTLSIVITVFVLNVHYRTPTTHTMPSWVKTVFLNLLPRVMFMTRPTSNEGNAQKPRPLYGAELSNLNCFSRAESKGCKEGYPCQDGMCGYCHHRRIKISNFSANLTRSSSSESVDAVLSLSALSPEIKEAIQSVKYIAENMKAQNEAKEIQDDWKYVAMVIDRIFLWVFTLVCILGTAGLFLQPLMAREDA
Sequence of α3β4 (P30926 22-498): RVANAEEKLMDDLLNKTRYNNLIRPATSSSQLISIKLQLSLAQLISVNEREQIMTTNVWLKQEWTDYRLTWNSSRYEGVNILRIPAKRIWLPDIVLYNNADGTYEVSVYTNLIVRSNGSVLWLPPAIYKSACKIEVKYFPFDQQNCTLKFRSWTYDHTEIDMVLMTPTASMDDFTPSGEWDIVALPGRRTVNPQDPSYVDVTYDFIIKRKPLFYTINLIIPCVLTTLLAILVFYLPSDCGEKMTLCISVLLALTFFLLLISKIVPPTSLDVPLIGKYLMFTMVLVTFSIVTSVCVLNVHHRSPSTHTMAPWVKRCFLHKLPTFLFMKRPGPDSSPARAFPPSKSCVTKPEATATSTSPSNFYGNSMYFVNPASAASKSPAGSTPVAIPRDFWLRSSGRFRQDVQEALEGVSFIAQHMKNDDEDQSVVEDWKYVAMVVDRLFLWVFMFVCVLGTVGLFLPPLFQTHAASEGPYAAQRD

female P rats = assay: Pretreatment with α7 NAM SB-277011-A prior to adolescent binge alcohol exposure (ABAE), adult EtOH consumption; assay type: in vivo, rat
Procedure: Effects of exposure to the α7 negative allosteric modulator (NAM) SB-277011-A prior to adolescence binge alcohol exposure on adult EtOH consumption. Currently, there are 3 commercially available α7 NAMs: DHNK, SB-277011-A (SB), and Butaclamol (AY-23,028). SB is also a selective D3 antagonist. Butaclamol is a typical antipsychotic that is also a non-selective dopamine receptor antagonist. Referring now to FIG. 7, the ability of SB to prevent ABAE-induced increases were assessed in adult EtOH consumption. Briefly, female P rats were exposed to the standard ABAE protocol. ABAE and CON rats were injected (i.p.) with 0 (water), 1 or 5 mg/kg SB (Sigma) 2 hours before gavage treatment. […] Statistically, there was a significant ABAE X SB Dose X Day interaction term (F12,244=2.3; p<0.01). Therefore, the data sets indicate that despite having different off-target sites of activation (SB-D3 antagonist), both α7 NAMs prevented the deleterious consequences of ABAE.

α7 nicotinic receptor = α7 nicotinic receptor (Homo sapiens, UniProt P36544); details: cited from earlier work
Sequence of α7 nicotinic receptor (P36544 23-502): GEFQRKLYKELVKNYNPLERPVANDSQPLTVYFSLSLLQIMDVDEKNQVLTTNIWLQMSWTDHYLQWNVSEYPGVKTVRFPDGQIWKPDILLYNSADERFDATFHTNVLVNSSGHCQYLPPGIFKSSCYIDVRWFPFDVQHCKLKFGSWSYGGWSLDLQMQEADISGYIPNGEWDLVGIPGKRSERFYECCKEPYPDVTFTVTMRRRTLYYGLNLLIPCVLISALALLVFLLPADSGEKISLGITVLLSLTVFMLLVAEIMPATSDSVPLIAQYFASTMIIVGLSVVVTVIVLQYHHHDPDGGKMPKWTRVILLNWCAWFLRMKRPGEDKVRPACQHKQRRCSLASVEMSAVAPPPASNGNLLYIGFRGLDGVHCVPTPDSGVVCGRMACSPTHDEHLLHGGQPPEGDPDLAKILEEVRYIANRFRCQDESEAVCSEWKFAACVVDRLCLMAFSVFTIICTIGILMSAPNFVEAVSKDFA

Wistar rats = assay: Adolescent AR-R17779 exposure, adult operant beer self-administration (acquisition, extinction, relapse); assay type: in vivo, rat
Source text: as §2
Effects of exposure to the α7 agonist AR-R17779 during early adolescence on adult EtOH consumption (acquisition, maintenance, extinction, craving, and relapse). The current experiment was conducted to generalize the effects of exposure to an α7 NAchR receptor agonist during adolescence on adult alcohol consumption in non-selected (non-genetically predisposed rats). Brief exposure to AR during adolescence in Wistar rats produced similar alterations in adult beer consumption. Male and female Wistar rats were exposed to AR (0, 3, or 10 mg/kg) on PND 29, 30, 33, 35, 36, and 37 (no alcohol exposure during adolescence). On PND 75 rats were allowed to self-administer beer (9% IPA) under operant conditions.

[1] = system: alcohol preferring (P) rats; assay: Exposure to α7 agonist AR-R17779 during early adolescence, adult EtOH consumption (acquisition and relapse drinking); assay type: in vivo, rat; details: for duration of alcohol deprivation effect (ADE): vs baseline intake
Source text: as §1
Effects of exposure to the α7 agonist AR-R17779 during early adolescence on adult EtOH consumption. Adolescent male (n=14) and female (n=13) alcohol preferring (P) rats were exposed to the α7 nicotinic receptor agonist, AR-R17779 ((2S)-2′H-spiro[4-azabicyclo[2.2.2]octane-2,5′-[1,3]oxazolidin]-2′-one) (AR; Tocris) on PND 29, 30, 33, 35, 36, and 37. The doses of AR-R17779 was 0 (saline controls), 3 or 10 mg/kg (all drugs administered i.p.). […] The doses of AR employed are typical for peripheral administered studies and results in observed alterations in specific behaviors. All rats were group housed between PND 26 and 73 (adulthood). Subjects only received treatment with AR_on the days specified.
as §2

[2] = 1 or 5 mg/kg SB i.p. 2 hours before gavage
[3] = 3 and 10 mg/kg AR during adolescence

## NC1(c2ccccc2Cl)CCC=CC1=O (centres unmarked) [DHNK, 5,6-dehydronorketamine]
P rats; P rats, 10 mg/kg DHNK i.p. 2 hours prior to AIE
  effect on deleterious effects of adolescent alcohol exposure (adult alcohol intake, weeks 1-2): blocked the deleterious effects of adolescent alcohol exposure
P rats; P rats, 50 mg/kg DHNK i.p. 2 hours prior to AIE
  effect on deleterious effects of adolescent alcohol exposure (adult alcohol intake, weeks 1-2): blocked the deleterious effects of adolescent alcohol exposure
P rats; P rats, 50 mg/kg DHNK i.p. prior to water gavage
  adult alcohol drinking without adolescent alcohol (CON-50 mg/kg DHNK): did not alter alcohol drinking during adulthood
P rats; P rats, DHNK pretreatment
  effect on AIE-enhanced relapse drinking: altered the enhancement in relapse drinking produced by AIE exposure
P rats; female P rats, AIE-10 mg/kg DHNK, paired t-tests
  relapse alcohol drinking vs baseline: increase in alcohol consumption (compared to baseline during the 1st re-exposure day)
P rats; female P rats, ATE-50 mg/kg DHNK, paired t-tests
  relapse alcohol drinking vs baseline: increase in alcohol consumption during the first three re-exposure days
P rats; female P rats, CON-50 mg/kg DHNK, paired t-tests
  relapse alcohol drinking vs baseline: significant increase in alcohol drinking during the 1st re-exposure day
P rats; male P rats, AIE-10 mg/kg DHNK
  relapse alcohol drinking vs baseline: increase in drinking during the 1st re-exposure day
P rats; male P rats, AIE-50 mg/kg
  relapse alcohol drinking vs baseline (ADE): did not display an ADE
P rats; male P rats, CON-50 mg/kg
  relapse alcohol drinking vs baseline (ADE): did not display an ADE
P rats; male and female P rats, DHNK i.p. 2 hours prior to AIE
  effect on AIE-induced increase of adult alcohol consumption (overall): blocked the ability of adolescent alcohol exposure to increase alcohol consumption during adulthood
α3β4
  IC50: > 200 µM

## N#Cc1ccc2c(c1)CCN(CC[C@H]1CC[C@H](NC(=O)c3ccnc4ccccc34)CC1)C2 [SB-277011-A, N-{trans-4-[2-(6-cyano-3,4-dihydroisoquinolin-2(1H)-yl)ethyl]cyclohexyl}quinoline-4-carboxamide]
Female P rats; 1 mg/kg SB prior to ABAE
  relapse EtOH drinking, ABAE vs corresponding CON group (FIG. 8, +): consumed more alcohol than corresponding CON group
Female P rats; 1 mg/kg vs 5 mg/kg SB
  adult EtOH consumption (FIG. 7, +): 1 mg/kg>5 mg/kg SB rats
Female P rats; 5 mg/kg SB vs water-ABAE and 1 mg/kg SB
  adult EtOH consumption (FIG. 7, #): water-ABAE and 1 mg/kg SB>5 mg/kg SB rats
Female P rats; 1 and 5 mg/kg SB vs water-ABAE
  adult EtOH consumption (FIG. 7, *): water-ABAE rats >1 mg and 5 mg/kg SB rats
Female P rats; [2]
  effect on ABAE-induced enhancement of EtOH consumption during relapse (ADE): prevented ABAE-induced enhancement of EtOH consumption during relapse (ADE) conditions
  effect on ABAE-induced increase in EtOH consumption during acquisition: prevented the ABAE-induced increase in EtOH consumption during acquisition

## O=C1NC[C@@]2(CN3CCC2CC3)O1 [AR-R17779, (2S)-2′H-spiro[4-azabicyclo[2.2.2]octane-2,5′-[1,3]oxazolidin]-2′-one]
α7 nicotinic receptor
  affinity for receptors other than α7 nicotinic receptor: no or minimal affinity for all other examined receptors
Wistar rats; [3]
  beer self-administration during adulthood (FIG. 4, *): 3 and 10 AR>saline
  beer self-administration during adulthood (FIG. 4, +): 10>3>saline
Wistar rats; AR 3 or 10 mg/kg during adolescence, beer (9% IPA), operant
  acquisition of alcohol self-administration, sessions 7-14: acquired alcohol self-administration faster than controls
Wistar rats; adolescent exposure, no alcohol available
  rate of extinction learning: retarded the rate of extinction learning
Wistar rats; alcohol re-exposure, p values<0.001
  relapse drinking (individual ANOVAs): enhanced relapse drinking
Wistar rats; highest dose of AR-R17779
  lever responding, extinction session 3: responded more on the lever previously associated with delivery of alcohol than all other groups
Wistar rats; vs saline controls
  alcohol consumed during re-exposure sessions (post-hoc): consumed more alcohol than control rats (saline) during the initial 3 re-exposure sessions
Wistar rats; vs saline treated rats, Tukey's b
  lever responding, extinction sessions 1 and 2: responded more on the lever previously associated with the delivery of alcohol
[1]; female P rats, 3 mg/kg AR during adolescence
  duration of alcohol deprivation effect (ADE): 2 days
[1]; female P rats, 10 mg/kg AR during adolescence
  duration of alcohol deprivation effect (ADE): 3 days
[1]; female P rats, 10 mg/kg AR i.p. during early adolescence vs saline or 3 mg/kg, Tukey's b
  adult alcohol intake, 1st week of alcohol access: consumed more alcohol than rats administered saline or 3 mg/kg AR during adolescence
[1]; female P rats, 10 mg/kg AR vs 3 mg/kg group
  relapse EtOH drinking, Day 1 of EtOH re-exposure: consumed more alcohol than the 3 mg/kg group
[1]; female P rats, 10 mg/kg AR vs saline
  relapse EtOH drinking, 2nd re-exposure day: consumed more alcohol than rats administered saline
[1]; female P rats, 3 and 10 mg/kg AR i.p. during early adolescence vs saline, p<0.05
  adult alcohol intake, 2nd week of alcohol access: 10 mg/kg>3 mg/kg>saline
[1]; female P rats, 3 and 10 mg/kg AR vs saline
  relapse EtOH drinking, re-exposure day 3: 10 mg/kg>3 mg/kg>Saline
[1]; female and male P rats, 10 mg/kg during adolescence vs saline
  relapse EtOH drinking (FIG. 3, +): consumed more alcohol than saline controls
[1]; female and male rats, 3 mg/kg during adolescence
  average alcohol intake in adulthood (FIG. 2, #): 3 mg/kg>saline
[1]; female and male rats, 10 mg/kg during adolescence
  average alcohol intake in adulthood (FIG. 2, *): 10 mg/kg AR-R17779>3 mg/kg and saline
[1]; male P rats, 3 mg/kg AR during adolescence, p<0.05
  ADE, EtOH intake vs baseline: elevated levels of EtOH intake during the 1st re-exposure day compared to baseline intake
[1]; male P rats, 10 mg/kg AR during adolescence
  ADE, EtOH intake vs baseline: Evidence of an ADE was detected during re-exposure days 1-3
[1]; male P rats, 10 mg/kg AR i.p. during early adolescence vs saline or 3 mg/kg, p<0.05
  adult alcohol intake, 1st and 2nd weeks of alcohol access: consumed more alcohol than rats administered saline or 3 mg/kg AR
[1]; male P rats, AR 0, 3, 10 mg/kg, p>0.083
  relapse EtOH drinking, group differences during re-exposure days 1-4: no significant group differences
